Laboratory results: patent publication US6063819A (priority 1998, dated 2000)
Entries after “also recorded” stand apart in the source; their conditions may differ. Read-outs that look alike come from different tables or passages of the source.

Legend:
[1] = test system: neurons in CA1 and CA2 fields of the hippocampus and in the subiculum; assay: In vivo protection against global brain ischemia (bilateral carotid occlusion, gerbils); design: species or system Adult male Mongolian gerbils; settings: for median number of visibly damaged neurons, CA2: saline controls 23.9; for median number of visibly damaged neurons, Subiculum: saline controls 214.0; for median number of visibly damaged neurons, CA1: saline controls 235.5; for protection against ischemia: gerbils, IP
Procedure: Adult male Mongolian gerbils, 50 to 60 grams body weight, were put under methoxyflurane anesthesia and surgically subjected to reversible bilateral carotid occlusion for 5 minutes, using published methods (Wasterlain et al 1996). Occlusion was produced by exposure of both common carotid arteries via a ventral midline incision, isolation of the carotids with 4-0 silk suture, and application of microaneurysm clips. After five minutes of occlusion, the clips were removed, and the incision was closed. Body temperature was maintained at 37° C. throughout the surgical and recovery periods.
Blockage of both common carotids generates global brain ischemia in most gerbils. However, some gerbils contain a vascular structure at the base of the brain which resembles the Circle of Willis in humans, which allows some commingling of oxygenated blood from the carotid and vertebral arteries. Accordingly, the surgical method of generating global ischemia in gerbils by clamping flow through the carotids is not completely reliable in all test animals. To overcome this problem, a sufficient number of gerbils must be treated and tested to ensure statistically significant and reliable results.
A solution containing the test compound (or saline, as a control) was administered at the dosage and time described below, via intraperitoneal (IP) injection. The gerbils were sacrificed 72 hours later, and the brains were perfusion-fixed with paraformaldehyde. Serial sections of the brain were cut and stained with hematoxylin and eosin, and quantitative cell counts of live and dead neurons in the CA1 and CA2 fields of the hippocampus and in the subiculum were made, using both light and fluorescence microscopy. Evaluation of neuronal damage in other brain regions was also made on a semi-quantitative scale, and statistical analysis was performed on all damage scores (non-paired Student's T test).
The in vivo tests involving the CYP-PA2 compound used two different dosage regimens. One set of test animals received two injections: 30 mg/kg, at 30 minutes prior to the start of ischemia, and another 30 mg/kg at 90 minutes after the termination of ischemia. […] This neuroprotective activity was statistically significant at higher than the 95% level. A second set of test animals received a smaller dosage (10 mg/kg) of CYP-PA2, in a single injection 30 minutes before the onset of ischemia.
Tests on the CYP-PA1 compound used three different dosage levels: 7.5 mg/kg, injected 30 minutes before occlusion began; 20 mg/kg, injected 30 minutes before occlusion began; and 20 mg/kg, injected 30 minutes after occlusion was terminated.
The values reported in Table 3 are median numbers of visibly damaged neurons, counted in a single entire tissue slice.

L-type calcium channels = assay: Competitive inhibition of 3H-PN200-110 (or 3H-nitrendipine) binding to L-type calcium channels, rat brain neuronal membranes; settings: Table 1
[2] = test system: neurons of the CA1 region of the hippocampus; assay: Hippocampal slice assay: protection of CA1 neurons against hypoxic injury (recovery of population spike); format: cell-based, male Sprague-Dawley rats; settings: for EC50: Rattus norvegicus, Neuron, 1 h, 50% recovery 60 minutes after hypoxia; for relative potency in hippocampal slices: comparison CYP-PA2 with CYP-PA1, or CYP-PA2X with CYP-PA2
Procedure: (2) Additional in vitro tests involving perfused slices of hippocampal tissue from the brains of sacrificed rats, as described in Example 8. Various poly-guanidino candidates with good combinations of N-channel and P/Q-channel blocking potency (as shown in the ligand blocking assays of Example 7) were tested to determine their ability to protect hippocampal neurons against damage during and after a period of tissue hypoxia.
The ability of CYP-PA1 and CYP-PA2 to protect against hypoxic injury in neurons of the CA1 region of the hippocampus was examined, using an assay which involves intact tissue sections taken from the hippocampal regions of rat brains. To carry out these assays, male Sprague-Dawley rats were briefly anesthetized with halothane and decapitated. Brains were quickly removed and placed in cold artificial cerebral spinal fluid (ACSF) for one minute. ACSF was composed of (in mM): NaCl, 126; KCl, 4; KH2 PO4, 1.4; MgSO4, 1.3; CaCl2, 2.4; NaHCO3, 26; and glucose, 4; pH 7.4, saturated with 95% O2, 5% CO2. Hippocampi were dissected free from the brains, and cut into 475 μm transverse sections (also called slices). The slices were placed in paired recording wells perfused with ACSF maintained at 37° C. Several hippocampal slices were placed in each recording well.
One hour after placement of the tissue slices into recording wells, the orthodromic CA1 population spike (PS) was measured. This indicator of synaptic and neuronal cell body function was elicited by stimulation with a twisted bipolar electrode placed over the CA3 Schaffer collaterals. Responses were recorded in the pyramidal layer of CA1, using a tungsten electrode. Strengths of currents and recording electrode depth were adjusted to obtain maximal amplitude of the CA1 PS. Only slices having an orthodromic CA1 PS of 3 mV or greater on initial assessment were used for further testing.
One tissue slice in each well was given orthodromic stimulation every 30 seconds throughout the experiment, in order to monitor evoked response activity. These slices were designated as "stimulated slices." In general, periodic stimulation provides an even more rigorous test of neuroprotective ability, since the repeated stimulation forces neurons to use up their metabolic resources after each impulse, to reestablish a polarized and ready-to-fire status.
For the remaining slices in each well, orthodromic and antidromic PS amplitude was assessed at the beginning and end of each experiment, without any periodic stimulation. These slices were designated as "unstimulated slices."
All slices were subjected to hypoxia by changing the perfusion medium to oxygen-devoid ACSF saturated with 95% N2, 5% CO2. Slices in one recording well additionally received exposure to various concentrations of the poly-guanidino compounds discussed above, added directly into the perfusion ACSF. Hypoxic duration was continued until 5 minutes after the disappearance of the hypoxic injury potential (Fairchild et al 1988) in the unmedicated stimulated slice. Final recovery was assessed 60 minutes after returning to oxygenated conditions. Exposure to the poly-guanidino compounds began 30 minutes prior to hypoxia and continued through the first 15 minutes of recovery.

[3] = LD50 toxicity test, intraperitoneal injection in mice; format: in vivo; settings: for LD50: mouse, in vivo, ip
Procedure: At roughly the same time as the hippocampal tissue tests were being carried out, various polyamine compounds were also tested in toxicity tests, using conventional LD50 tests in mice. […] According, subsequent in vivo tests focused mainly on the CYP-PA1 compound.
These tests used intraperitoneal (IP) injection in mice.

T channels = settings: background; cited from earlier work
L-type channels = settings: background; cited from earlier work
[4] = 20 mg/kg IP post (30 minutes after occlusion terminated)
[5] = stimulated slices, antidromic, read-out: EC50, antidromic PS amplitude, stimulated slices
[6] = stimulated slices, orthodromic, read-out: EC50, orthodromic PS amplitude, stimulated slices
[7] = unstimulated slices, antidromic, read-out: EC50, antidromic PS amplitude, unstimulated slices
[8] = unstimulated slices, orthodromic, read-out: EC50, orthodromic PS amplitude, unstimulated slices

**Q.** Which “median number of visibly damaged neurons, CA2” value (shortened to “median number … CA2”) ([1]; 7.5 mg/kg IP pre-occlusion) does the source give for `N=C(N)NCCC[C@H](N)C(=O)NCCN(CCNC(=O)[C@@H](N)CCCNC(=N)N)CCNC(=O)[C@@H](N)CCCNC(=N)N` [CYP-PA1, tris(arginyl-2-aminoethyl)amine] here?
**A.** Its value is 15.2.

**Q.** And the “median number of visibly damaged neurons, Subiculum” value (“median number … Subiculum” for short) ([1]; 7.5 mg/kg IP pre-occlusion)?
**A.** Its value is 91.5.

**Q.** What about the “median number of visibly damaged neurons, CA1” value (from here on “median number … CA1”) ([1]; 7.5 mg/kg IP pre-occlusion) of the same compound?
**A.** Its value is 37.5.

**Q.** And the “median number … CA2” value [1, 4]?
**A.** The value was 14.7.

**Q.** What about the “median number … Subiculum” value [1, 4] of the same compound?
**A.** Its value is 31.0.

**Q.** What about the “median number … CA1” value [1, 4] of the same compound?
**A.** Its value is 14.5.

**Q.** What about the “median number … CA2” value ([1]; 20 mg/kg IP pre-occlusion) of the same compound?
**A.** The value was 10.4.

**Q.** What about the “median number … Subiculum” value ([1]; 20 mg/kg IP pre-occlusion) of the same compound?
**A.** The value was 38.5.

**Q.** And the “median number … CA1” value ([1]; 20 mg/kg IP pre-occlusion)?
**A.** The value was 18.0.

**Q.** And the “significance of reduction in neuronal damage, CA2” value ([1]; CA2 region)?
**A.** The value was “did not rise to the level of significance at the 95% confidence level”.

**Q.** And the “number of injured neurons vs saline-treated controls” value ([1]; all treatment dosages)?
**A.** Its value is “substantially reduced”.

**Q.** And the “protection against ischemia” value [1]?
**A.** The value was “quite substantial and beneficial; also recorded: substantial and beneficial protection against actual ischemia”.

**Q.** And the “significance level of reduction in neuronal damage, subiculum and CA1” value ([1]; subiculum and CA1 regions)?
**A.** The value was no less than 98%.

**Q.** What about the IC50 (L-type calcium channels) of the same compound?
**A.** Its IC50 is greater than 300 µM.

**Q.** What about the “neuroprotective activity in hippocampal slices” value [2] of the same compound?
**A.** The value was “substantial neuroprotective activity”.

**Q.** And the EC50 [2, 5]?
**A.** Its EC50 is 95 µM.

**Q.** What about the EC50 [2, 6] of the same compound?
**A.** The EC50 was 97 µM.

**Q.** What about the EC50 [2, 7] of the same compound?
**A.** The EC50 was 87 µM.

**Q.** What about the EC50 [2, 8] of the same compound?
**A.** The EC50 was 90 µM.

**Q.** What about the “toxicity: lethal or other adverse effects” value ([3]; IP, even at highest dosage tested (200 mg/kg)) of the same compound?
**A.** The value was “no detectable lethal or other adverse effects; also recorded: completely free of any toxicity concerns”.

**Q.** For `N=C(N)NCCC[C@H](NC(=O)[C@@H](N)CCCNC(=N)N)C(=O)NCCN(CCNC(=O)[C@H](CCCNC(=N)N)NC(=O)[C@@H](N)CCCNC(=N)N)CCNC(=O)[C@H](CCCNC(=N)N)NC(=O)[C@@H](N)CCCNC(=N)N` [CYP-PA2, Tris(arginyl-arginyl-2-aminoethyl)amine], which “statistical significance of reduction of neuronal damage” value ([1]; 10 mg/kg IP single injection) is on record?
**A.** The value was “did not reach the 95% confidence level”.

**Q.** What about the neurons damaged ([1]; 10 mg/kg IP single injection 30 minutes before ischemia, untreated control 74.6%) of the same compound?
**A.** Its neurons damaged is 56.1%.

**Q.** What about the “neurons showing visible damage” value ([1]; 2 x 30 mg/kg IP, 30 minutes before and 90 minutes after ischemia, untreated control 74.6%) of the same compound?
**A.** The value was 40.9%.

**Q.** What about the “statistical significance of neuroprotective activity” value ([1]; 2 x 30 mg/kg IP, confidence level) of the same compound?
**A.** Its value is greater than 95%.

**Q.** What about the “protection against ischemia” value [1] of the same compound?
**A.** Its value is “good neuroprotective activity; also recorded: substantial and beneficial protection against actual ischemia”.

**Q.** And the IC50 (L-type calcium channels)?
**A.** The IC50 was greater than 100 µM.

**Q.** And the “neuroprotective activity in hippocampal slices” value [2]?
**A.** Its value is “substantial neuroprotective activity; also recorded: potent neuroprotective benefits”.

**Q.** And the EC50 [2, 5]?
**A.** Its EC50 is 42 µM.

**Q.** And the EC50 [2, 6]?
**A.** The EC50 was 43 µM.

**Q.** What about the EC50 [2, 7] of the same compound?
**A.** Its EC50 is 37 µM.

**Q.** What about the EC50 [2, 8] of the same compound?
**A.** The EC50 was 38 µM.

**Q.** What about the “relative potency in hippocampal slices” value [2] of the same compound?
**A.** The value was “somewhat more potent than the tri-arginine compound, CYP-PA1”.

**Q.** And the LD50 ([3]; read-out: LD50)?
**A.** The LD50 was roughly 125 mg/kg.

**Q.** What about the LD50 ([3]; read-out: LD50 level) of the same compound?
**A.** Its LD50 is 125 mg/kg.

**Q.** Which “relative potency in hippocampal slices” value [2] does the source give for `N=C(N)NCCC[C@H](NC(=O)[C@@H](N)CCCNC(=N)N)C(=O)NCCN(CCN)CCNC(=O)[C@H](CCCNC(=N)N)NC(=O)[C@@H](N)CCCNC(=N)N` [CYP-PA2X] here?
**A.** The value was “not as potent as the fully di-arginylated compound CYP-PA2”.

**Q.** Which “binding to T channels” value (T channels) does the source give for `Fc1ccc(C(c2ccc(F)cc2)N2CCN(C/C=C/c3ccccc3)CC2)cc1` [flunarizine] here?
**A.** The value was “not to T or N channels”.

**Q.** And the “binding to L-type channels” value (L-type channels)?
**A.** The value was “bind to L-type channels”.

**Q.** For `COC(=O)C1=C(C)NC(C)=C(C(=O)OCCN(C)Cc2ccccc2)C1c1cccc([N+](=O)[O-])c1` (centres unmarked) [nicardipine], which “binding to T channels” value (T channels) is on record?
**A.** The value was “not to T or N channels”.

**Q.** What about the “binding to L-type channels” value (L-type channels) of the same compound?
**A.** The value was “bind to L-type channels”.

**Q.** With `COC(=O)C1=C(C)NC(C)=C(C(=O)OC)C1c1ccccc1[N+](=O)[O-]` [nifedipine] as the compound, how does the “binding to T channels” value (T channels) read?
**A.** The value was “not to T or N channels”.

**Q.** What about the “binding to L-type channels” value (L-type channels) of the same compound?
**A.** Its value is “bind to L-type channels”.
